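Protocol summary: plate cells (96-well), add compound at 5 concentrations, incubate 48 h, interpolate endpoints linearly. Here, GI50 denotes the concentration required for 50% inhibition of growth. The concentration for full growth arrest is given as TGI.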
Columns and labels:
Assay in all cases: NCI anticancer screen, dose series, 48 h
786-0 renal = system: 786-0 renal
A498 renal = system: A498 renal
A549 NSCLC = system: A549 NSCLC
ACHN renal = system: ACHN renal
BT-549 breast = system: BT-549 breast
CAKI-1 renal = system: CAKI-1 renal
CCRF-CEM leukemia = system: CCRF-CEM leukemia
COLO 205 colon = system: COLO 205 colon
DU-145 prostate = system: DU-145 prostate
EKVX NSCLC = system: EKVX NSCLC
HCC-2998 colon = system: HCC-2998 colon
HCT-116 colon = system: HCT-116 colon
HCT-15 colon = system: HCT-15 colon
HL-60(TB) leukemia = system: HL-60(TB) leukemia
HOP-62 NSCLC = system: HOP-62 NSCLC
HOP-92 NSCLC = system: HOP-92 NSCLC
HS 578T breast = system: HS 578T breast
HT29 colon = system: HT29 colon
IGROV1 ovarian = system: IGROV1 ovarian
K-562 leukemia = system: K-562 leukemia
KM12 colon = system: KM12 colon
LOX IMVI melanoma = system: LOX IMVI melanoma
M14 melanoma = system: M14 melanoma
MALME-3M melanoma = system: MALME-3M melanoma
MCF7 breast = system: MCF7 breast
MDA-MB-231 breast = system: MDA-MB-231 breast
MDA-MB-435 = system: MDA-MB-435
MDA-MB-468 breast = system: MDA-MB-468 breast
MOLT-4 leukemia = system: MOLT-4 leukemia
NCI-H226 lung = system: NCI-H226 lung
NCI-H23 lung = system: NCI-H23 lung
NCI-H460 lung = system: NCI-H460 lung
NCI-H522 lung = system: NCI-H522 lung
NCI/ADR-RES ovarian = system: NCI/ADR-RES ovarian
OVCAR-3 ovarian = system: OVCAR-3 ovarian
OVCAR-4 ovarian = system: OVCAR-4 ovarian
OVCAR-5 ovarian = system: OVCAR-5 ovarian
OVCAR-8 ovarian = system: OVCAR-8 ovarian
PC-3 prostate = system: PC-3 prostate
RPMI-8226 leukemia = system: RPMI-8226 leukemia
RXF 393 renal = system: RXF 393 renal
SF-268 CNS = system: SF-268 CNS
SF-295 CNS = system: SF-295 CNS
SF-539 CNS = system: SF-539 CNS
SK-MEL-2 melanoma = system: SK-MEL-2 melanoma
SK-MEL-28 melanoma = system: SK-MEL-28 melanoma
SK-MEL-5 melanoma = system: SK-MEL-5 melanoma
SK-OV-3 ovarian = system: SK-OV-3 ovarian
SN12C renal = system: SN12C renal
SNB-19 CNS = system: SNB-19 CNS
SNB-75 CNS = system: SNB-75 CNS
SR leukemia = system: SR leukemia
SW-620 colon = system: SW-620 colon
T-47D breast = system: T-47D breast
TK-10 renal = system: TK-10 renal
U251 CNS = system: U251 CNS
UACC-257 melanoma = system: UACC-257 melanoma
UACC-62 melanoma = system: UACC-62 melanoma
UO-31 renal = system: UO-31 renal

Work on `CN(C)CCNC(=O)OCCCCOc1cc(O)c2c(=O)cc(-c3ccccc3)oc2c1` yielded a GI50 (786-0 renal) of 2 µM, a TGI (786-0 renal) of 4.72 µM and a GI50 (A498 renal) of 2.21 µM. The TGI (A498 renal) was 5.77 µM, the GI50 (A549 NSCLC) was 5.26 µM and the TGI (A549 NSCLC) was 19.3 µM. It also gave a GI50 (ACHN renal) of 1.92 µM, a TGI (ACHN renal) of 3.97 µM and a GI50 (BT-549 breast) of 10.6 µM. For the same compound, the TGI (BT-549 breast) was 22.7 µM, the GI50 (CAKI-1 renal) was 3.04 µM and the TGI (CAKI-1 renal) was 12.2 µM. For the same compound, the GI50 (CCRF-CEM leukemia) was 3.21 µM, the TGI (CCRF-CEM leukemia) was 10.7 µM and the GI50 (COLO 205 colon) was 1.84 µM. It also gave a TGI (COLO 205 colon) of 3.5 µM, a GI50 (DU-145 prostate) of 3.73 µM and a TGI (DU-145 prostate) of 13.9 µM. For the same compound, the GI50 (EKVX NSCLC) was 7.87 µM, the TGI (EKVX NSCLC) was 20.2 µM and the GI50 (HCC-2998 colon) was 3.25 µM. For the same compound, the TGI (HCC-2998 colon) was 10.3 µM, the GI50 (HCT-116 colon) was 2.01 µM and the TGI (HCT-116 colon) was 4.85 µM. The GI50 (HCT-15 colon) was 2.25 µM, the TGI (HCT-15 colon) was 5.8 µM and the GI50 (HL-60(TB) leukemia) was 1.64 µM. For the same compound, the TGI (HL-60(TB) leukemia) was 3.59 µM, the GI50 (HOP-62 NSCLC) was 10.4 µM and the TGI (HOP-62 NSCLC) was 24.4 µM. The GI50 (HOP-92 NSCLC) was 4.35 µM, the TGI (HOP-92 NSCLC) was 19.1 µM and the GI50 (HS 578T breast) was 4.35 µM. It also gave a TGI (HS 578T breast) of 23.4 µM, a GI50 (HT29 colon) of 1.88 µM and a TGI (HT29 colon) of 3.98 µM. It also gave a GI50 (IGROV1 ovarian) of 15.7 µM, a TGI (IGROV1 ovarian) of 29.6 µM and a GI50 (K-562 leukemia) of 1.96 µM. The TGI (K-562 leukemia) was 5.98 µM, the GI50 (KM12 colon) was 6.09 µM and the TGI (KM12 colon) was 20.4 µM. The GI50 (LOX IMVI melanoma) was 1.79 µM, the TGI (LOX IMVI melanoma) was 3.25 µM and the GI50 (M14 melanoma) was 1.89 µM. For the same compound, the TGI (M14 melanoma) was 3.78 µM, the GI50 (MALME-3M melanoma) was 1.57 µM and the TGI (MALME-3M melanoma) was 2.97 µM. For the same compound, the GI50 (MCF7 breast) was 1.59 µM, the TGI (MCF7 breast) was 3.76 µM and the GI50 (MDA-MB-231 breast) was 1.74 µM. It also gave a TGI (MDA-MB-231 breast) of 3.78 µM, a GI50 (MDA-MB-435) of 2.12 µM and a TGI (MDA-MB-435) of 4.66 µM. The GI50 (MDA-MB-468 breast) was 1.78 µM, the TGI (MDA-MB-468 breast) was 4.16 µM and the GI50 (MOLT-4 leukemia) was 2.25 µM. It also gave a TGI (MOLT-4 leukemia) of 6.24 µM, a GI50 (NCI-H226 lung) of 10.1 µM and a TGI (NCI-H226 lung) of 28.8 µM. It also gave a GI50 (NCI-H23 lung) of 7.23 µM, a TGI (NCI-H23 lung) of 20.4 µM and a GI50 (NCI-H460 lung) of 3.01 µM. The TGI (NCI-H460 lung) was 10.1 µM, the GI50 (NCI-H522 lung) was 3.68 µM and the TGI (NCI-H522 lung) was 16 µM. For the same compound, the GI50 (NCI/ADR-RES ovarian) was 7.37 µM, the TGI (NCI/ADR-RES ovarian) was 34.2 µM and the GI50 (OVCAR-3 ovarian) was 4.42 µM. For the same compound, the TGI (OVCAR-3 ovarian) was 16.3 µM, the GI50 (OVCAR-4 ovarian) was 10.1 µM and the TGI (OVCAR-4 ovarian) was 24.7 µM. The GI50 (OVCAR-5 ovarian) was 11.8 µM, the TGI (OVCAR-5 ovarian) was 24.2 µM and the GI50 (OVCAR-8 ovarian) was 10 µM. For the same compound, the TGI (OVCAR-8 ovarian) was 24.5 µM, the GI50 (PC-3 prostate) was 4.35 µM and the TGI (PC-3 prostate) was 17.9 µM. The GI50 (RPMI-8226 leukemia) was 2.97 µM, the TGI (RPMI-8226 leukemia) was 9.69 µM and the GI50 (RXF 393 renal) was 1.64 µM. For the same compound, the TGI (RXF 393 renal) was 3.35 µM, the GI50 (SF-268 CNS) was 3.51 µM and the TGI (SF-268 CNS) was 16.2 µM. For the same compound, the GI50 (SF-295 CNS) was 2.14 µM, the TGI (SF-295 CNS) was 4.06 µM and the GI50 (SF-539 CNS) was 1.53 µM. The TGI (SF-539 CNS) was 2.93 µM, the GI50 (SK-MEL-2 melanoma) was 2.88 µM and the TGI (SK-MEL-2 melanoma) was 9.08 µM. It also gave a GI50 (SK-MEL-28 melanoma) of 1.62 µM, a TGI (SK-MEL-28 melanoma) of 3.1 µM and a GI50 (SK-MEL-5 melanoma) of 1.65 µM. The TGI (SK-MEL-5 melanoma) was 3.03 µM, the GI50 (SK-OV-3 ovarian) was 11.3 µM and the TGI (SK-OV-3 ovarian) was 23.7 µM. The GI50 (SN12C renal) was 13.8 µM, the TGI (SN12C renal) was 27.4 µM and the GI50 (SNB-19 CNS) was 6.09 µM. It also gave a TGI (SNB-19 CNS) of 20.3 µM, a GI50 (SNB-75 CNS) of 11 µM and a TGI (SNB-75 CNS) of 24 µM. It also gave a GI50 (SR leukemia) of 1.95 µM, a TGI (SR leukemia) of 4.16 µM and a GI50 (SW-620 colon) of 2.03 µM. The TGI (SW-620 colon) was 4.49 µM, the GI50 (T-47D breast) was 1.88 µM and the TGI (T-47D breast) was 4.23 µM. For the same compound, the GI50 (TK-10 renal) was 18.5 µM, the TGI (TK-10 renal) was 33.2 µM and the GI50 (U251 CNS) was 2.31 µM. It also gave a TGI (U251 CNS) of 6.74 µM, a GI50 (UACC-257 melanoma) of 1.89 µM and a TGI (UACC-257 melanoma) of 3.61 µM. For the same compound, the GI50 (UACC-62 melanoma) was 1.78 µM, the TGI (UACC-62 melanoma) was 3.43 µM and the GI50 (UO-31 renal) was 4.56 µM. For the same compound, the TGI (UO-31 renal) was 16.9 µM.

Source: PubChem BioAssay (NCI)
